Measurements taken from patent publication US6541463B1, “Inhibitors of type 5 and type 3 17β-hydroxysteroid dehydrogenase and methods for their use” (Endorecherche, Inc., priority 1998, dated 2003).

Legend:
[1] = system: progesterone receptor; assay: Progesterone receptor assay: inhibition of [3H]R5020 binding, uterine cytosol; set-up: species or system rat
Description: The manner in which the percentage of inhibition is determined is described in “Other Tests; E-Progesterone Receptor Assay”. Lower numbers are desirable.
[17α-methyl-^3H]-promegestone (R5020) (84 Ci/mmol) and the corresponding unlabeled compound were purchased from New England Nuclear (Lachine, Québec, Canada). All other chemicals were of analytical grade.
Stock solutions of the unlabeled steroids were kept at 4° C. in ethanol. The desired steroid solutions were then prepared by appropriate dilution in buffer B (10 mM Tris-HCl, 1.5 mM EDTA, 10 mM α-monothioglycerol, pH 7.4) containing 30% ethanol.
Female Sprague-Dawley rats weighing 200-300 g were obtained from Charles-River Inc. (St-Constant, Québec, Canada). The rats were gonadectomized under general anesthesia (Isoflurane) and killed by cervical dislocation 24 hours later. The uteri are rapidly removed, dissected free from adhering tissue and frozen on dry-ice. Tissues were kept at −80° C. until use.
All procedures were performed at 4° C. Tissues were pulverized frozen in dry ice with a Thermovac pulverizer. The samples were then homogenized in 10 vol (w/v) of buffer A (25 mM Tris-HCl, 1.5 mM EDTA, 10 mM α-monothioglycerol, 10% glycerol, 10 mM sodium molybdate, pH 7.4) using a Polytron PT-10 homogenizer (Brinkmann Instruments, Canada) at a setting of 5 for two periods of 10 sec, with intervals of 10 sec for cooling. The homogenate was then centrifuged at 105,000×g for 90 min. The supernatant was used immediately for assay.
Progesterone binding was measured using the dextran-coated charcoal adsorption technique. […] Each concentration was done in triplicate. Assay was ended with 300 μl of DCC (1% Norit A and 0.1% Dextran T-70 in Buffer B). After 10 min of incubation, tubes were centrifuged at 2,000×g for 10 min. and decanted in vials with 6 ml of BCS liquid scintillation (New England Nuclear, Dupont). The radioactivity was measured in a Beckman counter at a counting efficiency of 35%.

[2] = system: ZR-75-1 cells; assay: Estrogenic activity: stimulation of proliferation of ZR-75-1 cells; type: cell-based, human
Description: […] The manner in which the stimulation is determined is described in “Other Tests; C-Estrogenic/Antiestrogenic activity” Lower numbers are desirable. ND means that a determination was not done.
Estrogenic/antiestrogenic activity of some preferred compounds has been measured using the […] human breast cancer cell line as described in more detail below.
All media and medium supplments were purchased from Sigma. Cells were subcultured weekly by treatment with a pancreatic solution containing EDTA (0.2 g/L). The cell cultures used for the experiments herein describied were between passages 89 and 94.
Cells in their logarithmic growth phase were harvested, briefly centrifuged, and resuspended in RPMI 1640. Cells were then plated in triplicate in LIMBRO 24-well plastic culture plates (2 cm^2/well). Since plating density influences the effect of hormones on ZR-75-1 cell growth, cells were plated at a density of 1×10^4 cells/well. […] Control cultures received the ethanol vehicle only. Cells were then allowed to grow at 37° C. for 10 days with medium changes (of identical composition) every 2 days.
After E2 and/or antiestrogen treatment, cells were harvested by addition of 0.5 ml of a pancreatin solution (Sigma) for 5-10 min at 37° C. before addition of 0.5 mnl of RPMI 1640 containing 5% dextran coated […] bovine serum in order to block enzymatic action. Cell number (0.10 ml aliquot) was determined by measurement of DNA content as previously described (Simard et al., Endocrinology 126: 3223-3231,1990).

[3] = target: T1, human type 2 17β-hydroxysteroid dehydrogenase (Homo sapiens, UniProt P37059); assay: Enzymatic assay for type 2 17β-HSD; type: biochemical; conditions: Table 4′; for IC50: read-out: Inhibition Type 2 17β-HSD Activity IC50; for inhibition: read-out: Inhibition Type 2 17β-HSD Activity [% Inh. at 3 · 10^−8M]
T1 construct: expressed in transfected cells; host or cells: 293 cells, transient transfection; microsomal fraction (100 000×g pellet)
T1 sequence (P37059 1-387): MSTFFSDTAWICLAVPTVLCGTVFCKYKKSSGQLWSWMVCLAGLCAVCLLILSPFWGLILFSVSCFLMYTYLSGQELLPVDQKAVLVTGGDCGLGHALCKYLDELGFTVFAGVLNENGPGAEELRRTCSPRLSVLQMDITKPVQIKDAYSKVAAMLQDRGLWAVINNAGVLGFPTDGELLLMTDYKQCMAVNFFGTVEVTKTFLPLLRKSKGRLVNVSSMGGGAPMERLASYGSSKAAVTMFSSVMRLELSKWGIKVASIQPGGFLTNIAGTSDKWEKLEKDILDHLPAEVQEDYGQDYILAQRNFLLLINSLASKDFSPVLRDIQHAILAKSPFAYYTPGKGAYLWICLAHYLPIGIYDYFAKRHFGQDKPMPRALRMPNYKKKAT
Description: The manner in which IC50 was determined is described in “Efficacy of Preferred Inhibitors: VI. Enzymatic assay for types 1, 2, and 3 17β-HSD and types 1 and 3 3α-HSD”. […] numbers of IC50 are desirable. Blank means that a determination was not done. […]
Enzyme sources. 293 cells transiently transfected with expression vectors encoding types 1, 2 and 3 17β-HSD (Luu-The et al., J. Steroid Biochem. Molec. Biol., 55: 581-587, 1995), types 1 and 2 5α-reductase (Luu-The et al., J. Invest. Dermatol., 102: 221-226, 1994) and types 1 and 3 3α-HSD (Dufort et al. Biochem. Biophys. Res. Commun. 228: 474-479, 1996), using the calcium phosphate procedure (Kingston et al., In: Current Protocols in Molecular Biology. Edited by E. M. Ausbel, R. Brent, R. E. Kingston, D. D. Moore, J. G. Seidman, J. A. Smith, K. Struhl. John Wiley & Sons, New York, pp. 9.1.1-9.1.9, 1991; Luu-The et al., J. Invest. Dermatol., 102: 221-226, 1994). For assays using cell subfractions, cells were sonicated in 50 mM sodium phosphate buffer (pH 7.4), containing 20% glycerol and 1 mM EDTA and centrifuged at 10 000×g for 30 min before centrifugation for 100 000×g for 1 h to separate the mitochondrial and microsomal fractions, respectively. The cytosol fractions (100 000×g supernatant) was used to determine type 1 activity while the microsomal fraction (pellet at 100 000×g) was used for measurement of types 2 and 3 17β-HSD activities.
Incubation. The enzymatic reaction was carried out at 37° C. in 1 ml of 50 mM sodium phosphate buffer, pH 7.4, containing 20% glycerol, 1 mM EDTA, and 2 mM cofactors (NADPH or AND^+) for 1 h in the presence of 0.1 μM ^14C-labeled substrate: estrone and 4-dione for types 1 and […] 17β-HSD, respectively, testosterone for type 2 17β-HSD as well as types 1 and 2 5α-reductases, DHT for types 1 and 3 3α-HSD activities, and the indicated concentration of inhibitor.
Extraction of metabolites, migration on TLC and quantification were as described above for the assay of type 5 17β-HSD.

In the case of CCCCN(C)C(=O)[C@@]1(OC(C)=O)CCC2C3C=C(C)C4=CC(=O)CC[C@]4(C)C3CC[C@@]21C (some centres unmarked) [EM-1165], the “% Inhibition Progesterone Receptor” value ([1]; E^−6) is reported as 7% and the “% Inhibition Progesterone Receptor” value ([1]; E^−8) is reported as 0%.
In the case of CCC[C@]1(F)CC2C3C=CC4=CC(=O)CC[C@]4(C)C3CC[C@]2(C)C1=O (some centres unmarked) [EM-1183], the “% Inhibition Progesterone Receptor E^−6” value ([1]; E^−6) is reported as 45% and the “% Inhibition Progesterone Receptor E^−8” value ([1]; E^−8) is reported as 9%.
With CC(C)C[C@@H]1CC2C3C=CC4=CC(=O)CC[C@]4(C)C3CC[C@]2(C)C1=O (some centres unmarked) [EM-1273-CS] the “% Inhibition Progesterone Receptor E^−6” value ([1]; E^−6) was 0%, the “% Inhibition Progesterone Receptor E^−8” value ([1]; E^−8) was 0% and the “ZR-75-1 Activity, Basal E^−6” value [2] was 0. The “ZR-75-1 Activity, Basal E^−8” value [2] was 0.
With C[C@]12CCC(=O)C=C1C=C[C@@H]1[C@@H]2CC[C@]2(C)C(=O)C3(CC4CC4C3)C[C@@H]12 (some centres unmarked) [EM-1299, 4,6-Androstadien-3,17-dione-16-spirobicyclo[3′.1′.0′]-hexane] the “% Inhibition Progesterone Receptor E^−6” value ([1]; E^−6) was 0% and the “% Inhibition Progesterone Receptor E^−8” value ([1]; E^−8) was 0%.
COCCOc1cc2c(cc1F)C1CCC3(C)C(CCC34CCC(C)(C)C(=O)O4)C1CC2 (centres unmarked) [EM-1393-CS] was tested, and the IC50 [3] was over 10 µM.
For CC1(C)CCC2(CCC3C4CCc5cc(C(=O)OCc6ccccc6)ccc5C4CCC32C)OC1=O (centres unmarked) [EM-1398], the “Inhibition Type 2 17β-HSD Activity [% Inh. at 3 · 10^−8M]” value ([3]; bracketed values, 3 · 10^−8M) was “[64] %”.
With CN(C)C(=O)c1ccc2c(c1)CCC1C2CCC2(C)C1CCC21CCC(C)(C)C(=O)O1 (centres unmarked) [EM-1403] the “% Inhibition Progesterone Receptor E^−6” value ([1]; Table 4′, E^−6) was 0% and the “% Inhibition Progesterone Receptor E^−8” value ([1]; Table 4′, E^−8) was 0%.
In the case of COc1cc2c(cc1C(F)(F)F)C1CCC3(C)C(CCC34CCC(C)(C)C(=O)O4)C1CC2 [EM-1409, 3-Methoxy-2-trifluoromethyl-1,3,5(10)-estratrien-17(R)-spiro-2′-(5′,5′-dimethyl-6′-oxo)tetrahydropyran], the inhibition ([3]; bracketed values, 3 · 10^−8M) is reported as 4%.
In the case of COCCOc1cc2c(cc1C(=O)N(C)C)C1CCC3(C)C(CCC34CCC(C)(C)C(=O)O4)C1CC2 (centres unmarked) [EM-1413-CS], the inhibition ([3]; bracketed values, 3 · 10^−8M) is reported as 69% and the IC50 [3] is reported as over 10 µM.
In the case of CC12CCC3c4ccc(O)cc4CCC3C1CCC21CC=CC(=O)O1 [PB-132-140, 3-hydroxy-1,3,5(10)-estratrien-17(R)-spiro-2′-(4′,5′-dihydro-6′-oxo)pyran], the “ZR-75-1 Activity, Basal E^−6” value ([2]; Table 4′) is reported as 71% and the “ZR-75-1 Activity, Basal E^−8” value ([2]; Table 4′) is reported as 15%.
CC(=O)O[C@]1(C(C)=O)CCC2C3C=C(C)C4=CC(=O)CC[C@]4(C)C3CC[C@@]21C (some centres unmarked) [megestrol acetate, reference compound] was tested, and the “% Inhibition Progesterone Receptor” value ([1]; * E^−5) was 97* %, the “% Inhibition Progesterone Receptor” value ([1]; * E^−7) was 36* % and the “% Inhibition Progesterone Receptor” value ([1]; E^−6) was 77%. For the same compound, the “% Inhibition Progesterone Receptor” value ([1]; E^−8) was 3%.
